Source: US20230064983A1 (priority 2020, published 2023)

How the values were obtained:
Format in all cases: cell-based
Ba/F3-EGFR-L858R cells = Ba/F3-EGFR-L858R cells (Homo sapiens, UniProt P00533, L858R, cells depend on it); experiment: Ba/F3 cell survival assay, EGFR L858R; conditions: classical activating and rare EGFR mutations; Table 7; read-out: BA/F3 (EGFR L858R) IC50
Ba/F3-EGFR L861Q cells = Ba/F3-EGFR L861Q cells (Homo sapiens, UniProt P00533, L861Q, cells depend on it); experiment: Ba/F3 cell survival assay, EGFR L861Q; conditions: classical activating and rare EGFR mutations; Table 7; read-out: BA/F3 (EGFR L861Q) IC50
Ba/F3-EGFR-WT cells = Ba/F3-EGFR-WT cells (Homo sapiens, UniProt P00533); experiment: Ba/F3 cell survival assay, wild type EGFR; conditions: Cell Titer-Glo, 48 h, with 10 ng/mL EGF; Table 4; read-out: BA/F3 (wild type) IC50
HCC-827 cells = experiment: HCC-827 cell proliferation assay (EGFRex19del); conditions: Homo sapiens, HCC827, 72 h, read-out: HCC-827 IC50
Description: Cellular Data Description (HCC-827 cells, EGFRex19del)
HCC-827 cells were purchased from ATCC. […] cells per well were seeded in growth medium (RPM11640, 10% FCS) in a 384-well plate (CORNING #3571). Seed reference plate for time zero determination on the same day. All plates were incubated overnight at 37° C. After 24 hours, test compound were added in 7-step dilution using HP Compound printer and incubated at 37° C. for 72 h. After 3 days, 30 μL/well CTG solution (Promega Cell Titer Glo solution; catalog #G755B and G756B) were added to each well, incubated for 30 minutes and the plate were read on PheraStar. Proliferation is calculated after subtracting time zero luminescence values from day 4 values and comparing to untreated wells.
The IC50 values were determined using the four parameter fit.

[1] = target: Ba/F3-EGFR-N771_P772insH cells (Homo sapiens, UniProt P00533, INS771H, cells depend on it); experiment: Ba/F3 cell survival assay, EGFR N771_P772insH; conditions: EGFR Exon20 insertion mutations; Table 6; read-out: BA/F3 (EGFR N771_P772insH) IC50
[2] = target: Ba/F3-EGFR-E746_A750del C797S cells (Homo sapiens, UniProt P00533, DEL746-750/C797S, cells depend on it); experiment: Ba/F3 cell survival assay, EGFR E746_A750del C797S; conditions: aquired resistance space; Table 8; read-out: BA/F3 (EGFR E746_A750del C797S) IC50

Sequence of Ba/F3-EGFR-WT cells (P00533 whole entry, looked up, stated change not applied): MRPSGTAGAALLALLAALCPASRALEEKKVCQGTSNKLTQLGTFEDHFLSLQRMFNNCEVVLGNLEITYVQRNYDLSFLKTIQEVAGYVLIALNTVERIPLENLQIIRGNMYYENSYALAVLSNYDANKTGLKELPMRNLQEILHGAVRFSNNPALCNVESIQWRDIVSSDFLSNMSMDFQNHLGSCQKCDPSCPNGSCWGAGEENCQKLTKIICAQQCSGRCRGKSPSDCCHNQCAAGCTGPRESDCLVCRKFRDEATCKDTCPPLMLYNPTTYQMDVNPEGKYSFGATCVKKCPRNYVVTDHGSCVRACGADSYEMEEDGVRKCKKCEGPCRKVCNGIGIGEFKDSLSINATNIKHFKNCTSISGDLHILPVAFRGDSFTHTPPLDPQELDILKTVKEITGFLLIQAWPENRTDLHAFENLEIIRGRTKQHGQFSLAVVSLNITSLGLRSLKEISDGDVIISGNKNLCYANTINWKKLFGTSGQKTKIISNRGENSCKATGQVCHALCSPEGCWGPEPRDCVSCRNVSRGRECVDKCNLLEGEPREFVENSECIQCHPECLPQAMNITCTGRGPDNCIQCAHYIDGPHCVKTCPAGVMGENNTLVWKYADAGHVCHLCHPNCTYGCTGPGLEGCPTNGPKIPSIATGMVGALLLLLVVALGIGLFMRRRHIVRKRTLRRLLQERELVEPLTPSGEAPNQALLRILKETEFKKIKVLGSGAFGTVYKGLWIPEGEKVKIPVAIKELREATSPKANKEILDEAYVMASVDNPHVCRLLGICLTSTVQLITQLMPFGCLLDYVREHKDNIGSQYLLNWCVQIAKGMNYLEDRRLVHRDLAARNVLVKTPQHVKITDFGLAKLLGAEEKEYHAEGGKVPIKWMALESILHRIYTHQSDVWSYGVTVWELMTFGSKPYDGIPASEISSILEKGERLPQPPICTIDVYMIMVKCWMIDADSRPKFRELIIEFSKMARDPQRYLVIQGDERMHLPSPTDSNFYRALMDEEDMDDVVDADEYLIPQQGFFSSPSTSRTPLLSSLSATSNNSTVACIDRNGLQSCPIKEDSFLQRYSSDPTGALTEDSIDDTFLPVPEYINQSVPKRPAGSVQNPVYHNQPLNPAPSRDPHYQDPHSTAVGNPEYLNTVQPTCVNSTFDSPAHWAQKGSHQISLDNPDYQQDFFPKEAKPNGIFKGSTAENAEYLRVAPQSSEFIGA
Sequence of Ba/F3-EGFR-N771_P772insH cells (P00533 with tags, fused parts or gaps INS771H): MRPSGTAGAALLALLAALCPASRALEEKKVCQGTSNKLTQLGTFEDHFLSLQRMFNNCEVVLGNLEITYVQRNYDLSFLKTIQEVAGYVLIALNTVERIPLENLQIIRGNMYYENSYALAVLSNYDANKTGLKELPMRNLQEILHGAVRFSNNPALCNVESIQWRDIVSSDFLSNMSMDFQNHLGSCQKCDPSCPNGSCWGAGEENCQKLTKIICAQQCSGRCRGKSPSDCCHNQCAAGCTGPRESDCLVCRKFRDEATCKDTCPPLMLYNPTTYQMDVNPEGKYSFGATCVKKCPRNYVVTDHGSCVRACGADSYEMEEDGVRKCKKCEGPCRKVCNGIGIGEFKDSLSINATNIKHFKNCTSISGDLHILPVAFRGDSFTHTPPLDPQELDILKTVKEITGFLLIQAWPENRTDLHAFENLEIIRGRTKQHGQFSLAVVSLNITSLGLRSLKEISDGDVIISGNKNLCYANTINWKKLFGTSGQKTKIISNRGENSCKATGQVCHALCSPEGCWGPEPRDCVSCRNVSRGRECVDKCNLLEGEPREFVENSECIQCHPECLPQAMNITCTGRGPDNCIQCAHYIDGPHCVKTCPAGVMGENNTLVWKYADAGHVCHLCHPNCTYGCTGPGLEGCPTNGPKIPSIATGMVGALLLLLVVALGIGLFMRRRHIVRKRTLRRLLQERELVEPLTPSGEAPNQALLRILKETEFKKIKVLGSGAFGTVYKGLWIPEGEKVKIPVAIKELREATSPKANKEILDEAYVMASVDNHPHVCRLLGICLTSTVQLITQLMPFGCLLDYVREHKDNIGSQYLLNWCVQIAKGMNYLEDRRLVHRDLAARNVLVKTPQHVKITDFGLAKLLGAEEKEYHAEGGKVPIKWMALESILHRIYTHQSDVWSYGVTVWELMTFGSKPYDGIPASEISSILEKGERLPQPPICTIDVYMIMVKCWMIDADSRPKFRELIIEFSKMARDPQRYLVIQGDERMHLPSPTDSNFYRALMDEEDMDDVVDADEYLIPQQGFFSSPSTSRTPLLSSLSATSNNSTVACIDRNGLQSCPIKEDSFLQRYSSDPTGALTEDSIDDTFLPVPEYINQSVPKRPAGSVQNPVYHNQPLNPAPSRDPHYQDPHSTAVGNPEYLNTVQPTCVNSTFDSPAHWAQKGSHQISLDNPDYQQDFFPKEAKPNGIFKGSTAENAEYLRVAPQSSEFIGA
Sequence of Ba/F3-EGFR-L858R cells (P00533 whole entry L858R): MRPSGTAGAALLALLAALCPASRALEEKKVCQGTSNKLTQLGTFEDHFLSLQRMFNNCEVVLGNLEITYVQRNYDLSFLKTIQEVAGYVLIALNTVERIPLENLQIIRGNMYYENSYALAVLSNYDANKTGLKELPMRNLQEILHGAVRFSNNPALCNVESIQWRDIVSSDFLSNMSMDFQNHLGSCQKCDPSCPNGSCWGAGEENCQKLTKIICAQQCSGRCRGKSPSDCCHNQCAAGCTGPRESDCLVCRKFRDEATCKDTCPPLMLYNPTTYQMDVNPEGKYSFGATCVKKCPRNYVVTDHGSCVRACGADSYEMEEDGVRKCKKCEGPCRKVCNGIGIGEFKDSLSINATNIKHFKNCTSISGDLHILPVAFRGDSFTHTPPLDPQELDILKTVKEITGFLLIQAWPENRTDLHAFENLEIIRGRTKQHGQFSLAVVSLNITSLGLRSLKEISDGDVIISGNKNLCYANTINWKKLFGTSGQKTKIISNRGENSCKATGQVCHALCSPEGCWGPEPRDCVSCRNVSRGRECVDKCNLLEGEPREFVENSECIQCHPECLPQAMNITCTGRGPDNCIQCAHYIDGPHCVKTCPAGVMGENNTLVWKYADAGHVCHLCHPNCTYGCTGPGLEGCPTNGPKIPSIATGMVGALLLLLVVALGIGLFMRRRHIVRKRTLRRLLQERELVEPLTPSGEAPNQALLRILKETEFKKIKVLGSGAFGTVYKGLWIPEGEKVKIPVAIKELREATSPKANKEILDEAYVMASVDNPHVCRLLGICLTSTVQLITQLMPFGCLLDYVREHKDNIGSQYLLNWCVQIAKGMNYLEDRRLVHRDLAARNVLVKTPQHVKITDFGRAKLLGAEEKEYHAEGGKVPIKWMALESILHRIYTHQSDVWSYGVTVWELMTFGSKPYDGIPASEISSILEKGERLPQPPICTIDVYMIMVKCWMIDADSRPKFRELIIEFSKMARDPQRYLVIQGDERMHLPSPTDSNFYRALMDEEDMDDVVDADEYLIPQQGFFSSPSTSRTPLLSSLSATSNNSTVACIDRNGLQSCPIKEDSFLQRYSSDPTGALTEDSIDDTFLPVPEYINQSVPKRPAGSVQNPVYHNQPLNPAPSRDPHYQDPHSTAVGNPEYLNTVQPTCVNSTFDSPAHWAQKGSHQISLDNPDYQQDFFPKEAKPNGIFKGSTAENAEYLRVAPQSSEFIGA
Sequence of Ba/F3-EGFR L861Q cells (P00533 whole entry L861Q): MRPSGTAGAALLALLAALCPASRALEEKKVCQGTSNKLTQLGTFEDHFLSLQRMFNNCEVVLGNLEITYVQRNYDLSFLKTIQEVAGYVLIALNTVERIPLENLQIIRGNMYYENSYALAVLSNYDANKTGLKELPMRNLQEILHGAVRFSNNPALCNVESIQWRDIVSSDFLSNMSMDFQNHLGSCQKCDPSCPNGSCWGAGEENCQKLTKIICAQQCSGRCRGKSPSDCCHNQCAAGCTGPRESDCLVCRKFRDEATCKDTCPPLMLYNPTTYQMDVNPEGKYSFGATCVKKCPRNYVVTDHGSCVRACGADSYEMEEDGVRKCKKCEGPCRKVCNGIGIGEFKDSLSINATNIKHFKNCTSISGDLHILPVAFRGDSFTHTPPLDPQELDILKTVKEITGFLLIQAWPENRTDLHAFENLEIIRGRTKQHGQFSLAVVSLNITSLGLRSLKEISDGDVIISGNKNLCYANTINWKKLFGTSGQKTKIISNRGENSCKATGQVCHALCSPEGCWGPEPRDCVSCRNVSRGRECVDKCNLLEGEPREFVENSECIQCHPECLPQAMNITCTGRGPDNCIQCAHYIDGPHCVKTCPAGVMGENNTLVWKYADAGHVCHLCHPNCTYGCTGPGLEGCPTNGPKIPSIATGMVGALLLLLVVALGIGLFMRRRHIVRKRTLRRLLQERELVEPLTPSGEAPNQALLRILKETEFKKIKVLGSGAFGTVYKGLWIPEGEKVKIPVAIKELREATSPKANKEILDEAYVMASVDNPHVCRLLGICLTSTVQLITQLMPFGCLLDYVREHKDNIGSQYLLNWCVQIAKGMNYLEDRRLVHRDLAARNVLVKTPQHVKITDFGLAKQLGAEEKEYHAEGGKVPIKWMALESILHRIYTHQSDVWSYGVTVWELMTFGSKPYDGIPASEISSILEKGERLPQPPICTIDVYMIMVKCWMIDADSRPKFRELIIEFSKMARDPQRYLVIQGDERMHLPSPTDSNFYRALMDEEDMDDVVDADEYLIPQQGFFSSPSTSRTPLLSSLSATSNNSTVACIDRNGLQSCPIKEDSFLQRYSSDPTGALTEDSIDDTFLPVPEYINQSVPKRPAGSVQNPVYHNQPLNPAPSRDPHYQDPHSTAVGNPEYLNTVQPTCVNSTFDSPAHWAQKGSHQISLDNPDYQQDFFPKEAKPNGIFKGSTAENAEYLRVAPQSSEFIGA

SMILES | GI50 (Ba/F3-EGFR-L858R cells) [nM] | GI50 (Ba/F3-EGFR L861Q cells) [nM] | GI50 (Ba/F3-EGFR-WT cells) [nM] | IC50 (HCC-827 cells) [nM] | GI50 [1] [nM] | GI50 [2] [nM]
COCC(C)Oc1cnccc1-c1[nH]c2c(c1Nc1cccc(Cl)c1OC)C(=O)N[C@@H]1CCC[C@H]21 (single isomer, unassigned) [Example 51] | 1.32 | 14.9 | 412 | < 3 | 6.89 | 0.564
COc1c(Cl)cccc1Nc1c(-c2ccncc2OCC2COCCO2)[nH]c2c1C(=O)NCC2C (single isomer, unassigned) [Example 34, 3-(3-chloro-2-methoxy-anilino)-2-[3-(1,4-dioxan-2-ylmethoxy)-4-pyridyl]-7-methyl-1,5,6,7-tetrahydropyrrolo[3,2-c]pyridin-4-one] | 2.76 | 31.8 | 424 | < 3 | 14.3 | 0.795
COc1c(Cl)cccc1Nc1c(-c2ccncc2OCCC(C)OC)[nH]c2c1C(=O)N[C@H](C)C2 (single isomer, unassigned) [Example 121] | 1.17 | 11.2 | 267 | < 3 | 4.49 | 0.384
COc1c(Cl)cccc1Nc1c(-c2ccncc2OC[C@@H]2CCCO2)[nH]c2c1C(=O)NC1(CC1)C2 [Example 113, 3′-(3-chloro-2-methoxyanilino)-2′-(3-{[(2S)-oxolan-2-yl]methoxy}pyridin-4-yl)-1′,7′-dihydrospiro[cyclopropane-1,6′-pyrrolo[3,2-c]pyridin]-4′(5′H)-one] | 3.71 | 45 | 849 | < 3 | 14.3 | 1.1
COc1c(Cl)cccc1Nc1c(-c2ccncc2OCCC2CCCCO2)[nH]c2c1C(=O)N[C@H](C)C2 (single isomer, unassigned) [Example 87] | 1.29 | 33.4 | 421 | < 3 | 21.6 | 0.804
Cc1c(Cl)cccc1Nc1c(-c2ccncc2OCC2COCCO2)[nH]c2c1C(=O)NCC2C (single isomer, unassigned) [Example 67, 3-(3-chloro-2-methyl-anilino)-2-[3-(1,4-dioxan-2-ylmethoxy)-4-pyridyl]-7-methyl-1,5,6,7-tetrahydropyrrolo[3,2-c]pyridin-4-one] | 3.16 | 53.6 | 1150 | < 3 | 18.3 | 0.581
